Data published in patent publication US20260062376A1, “SQUARAMIDE DERIVATIVES AS CB1 ALLOSTERIC MODULATORS” (RESEARCH TRIANGLE INSTITUTE, priority 2022, published 2026).

Experiments:
Human CB1 [1] = target: T1, Human CB1 (Homo sapiens (Human), UniProt P21554); test: Human CB1 HEK293 membrane [35S]GTPγS binding assay; assay type: biochemical; settings: HEK293 membranes expressing human CB1, in presence of CP55,940, mean ± SEM; for IC50: read-out: Human CB1 HEK293 membrane [35S]GTPγS binding assay pIC50 ± SEM (converted)
Method: Non-specific binding was determined by adding 30 μM unlabeled GTPγS.
(§1) Data Analysis: For calcium mobilization experiments, data were fit to a three-parameter logistic curve to generate IC50 values (GraphPad Prism 6.0, Graphpad Software, San Diego, California, United States of America). For [^35S]GTPγS experiments, data were normalized to maximal CP55,940 (100 nM) stimulation in the absence of test compound (i.e., vehicle=100%).

Human CB1 [2] = target: T1, Human CB1; test: Calcium mobilization assay (antagonist mode vs CP55,940); assay type: cell-based; settings: CHO-RD-HGA16 cells stably expressing human CB1; against EC50 concentration of CP55,940; mean ± SEM, at least three experiments
Method: Calcium Mobilization Assay: CHO-RD-HGA16 cells (Molecular Devices, San Jose, California, United States of America) stably expressing the human CB1 receptor were plated into 96-well black-walled assay plates at 25,000 cells/well in 100 μL of Ham's F12 (supplemented with 10% fetal bovine serum, 100 units of penicillin/streptomycin, and 100 μg/mL Normocin) and incubated overnight at 37° C., 5% CO2. Calcium 5 dye (Molecular Devices, San Jose, California, United States of America) was reconstituted according to the manufacturer's instructions. The reconstituted dye was diluted 1:40 in prewarmed (37° C.) assay buffer (lx HBSS, 20 mM HEPES, 2.5 mM probenecid, pH 7.4 at 37° C.). Growth medium was removed, and the cells were gently washed with 100 μL of prewarmed (37° C.) assay buffer. […] After the pretreatment incubation period, the plate was read with a FLIPR Tetra (Molecular Devices, San Jose, California, United States of America). […] Relative fluorescence units (RFU) were plotted against the log of compound concentrations. […] Test compound RFUs were compared to the CP55,940 Emax RFUs to generate % Emax values. For the CB2 agonist and antagonist assays, the same procedures were followed except that stable human CB2—CHO-RD-HGA16 cells were used.
as §1

Plasma protein binding = assay type: in vitro ADME
Mouse CB1 = Mouse CB1 (Mus musculus (Mouse), UniProt P47746); test: Mouse CB1 [35S]GTPγS binding assay (ICR mouse cerebellum membranes); assay type: biochemical; settings: in presence of CP55,940, mean ± SEM
Method: [^35S]GTPγS Binding Assay: For receptor signaling, membranes (10 μg protein) from either ICR mouse cerebellum mice (6-8 weeks old; Enviga International, Indianapolis, Indiana, United States of America) or HEK cells stably expressing CB1 receptor were preincubated in assay buffer for 10 min with 3 units/ml adenosine deaminase then incubated for 60 min at 30° C. with 30 μM GDP and 0.1 nM [^35S]GTPγS (Perkin Elmer Life Sciences, Boston, Massachusetts, United States of America). Non-specific binding was determined by adding 30 μM unlabeled GTPγS.
as §1

[3] = Kinetic solubility assessment; assay type: physicochemical; settings: aqueous buffer, kinetic from dmso stock; phosphate buffer solution, 2 hours at room temperature, target 400 μM
Method: The solution was agitated on a VX-2500 multi-tube vortexer (VWR International, Radnor, Pennsylvania, United States of America) for 2 hours at room temperature. Following agitation, the sample was filtrated on a glass-fiber filter (1 μm) and the eluate was diluted 400-fold with a mixture of acetonitrile: water (1:1). On each experimental occasion, nicardipine and imipramine were assessed as reference compounds for low and high solubility, respectively. All samples were assessed in triplicate and analyzed by LC-MS/MS using electrospray ionization against standards prepared in the same matrix.

[4] = Metabolic stability in rat liver microsomes; assay type: in vitro ADME; settings: pH 7.4, 0.5 mg/mL protein, NADPH, 37° C.
Method: Metabolic stability assessment: Compounds were incubated with rat liver microsomes at 37° C. for a total of 45 minutes. The reaction was performed at pH 7.4 in 100 mM potassium phosphate buffer containing 0.5 mg/mL of rat liver microsomal protein. Phase I metabolism was assessed by adding NADPH to a final concentration of 1 mM and collecting samples at time points 0, 5, 15, 30 and 45 minutes. All collected samples were quenched 1:1 with ice-cold stop solution (1 μM labetalol and 1 μM glyburide in acetonitrile) and centrifuged to remove precipitated protein. Resulting supernatants were further diluted 1:4 with acetonitrile:water (1:1). Samples were analyzed by LC/MS/MS and calculations for half-life, and in-vitro clearance were accomplished using Microsoft Excel (2007).

T1 sequence (P21554 whole entry): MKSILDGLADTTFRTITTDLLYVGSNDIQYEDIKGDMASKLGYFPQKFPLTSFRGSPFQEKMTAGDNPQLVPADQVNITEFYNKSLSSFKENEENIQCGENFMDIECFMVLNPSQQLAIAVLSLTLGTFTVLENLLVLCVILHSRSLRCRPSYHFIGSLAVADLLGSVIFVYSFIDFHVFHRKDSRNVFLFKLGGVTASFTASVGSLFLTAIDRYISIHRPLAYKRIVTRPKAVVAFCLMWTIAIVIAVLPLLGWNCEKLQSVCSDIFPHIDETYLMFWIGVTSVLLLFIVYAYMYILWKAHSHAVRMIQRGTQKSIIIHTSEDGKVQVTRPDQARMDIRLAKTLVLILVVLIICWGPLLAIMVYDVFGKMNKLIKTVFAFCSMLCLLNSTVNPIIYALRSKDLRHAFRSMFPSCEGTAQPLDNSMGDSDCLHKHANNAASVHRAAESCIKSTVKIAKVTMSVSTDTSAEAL
Chain of Mouse CB1 (P47746 whole entry): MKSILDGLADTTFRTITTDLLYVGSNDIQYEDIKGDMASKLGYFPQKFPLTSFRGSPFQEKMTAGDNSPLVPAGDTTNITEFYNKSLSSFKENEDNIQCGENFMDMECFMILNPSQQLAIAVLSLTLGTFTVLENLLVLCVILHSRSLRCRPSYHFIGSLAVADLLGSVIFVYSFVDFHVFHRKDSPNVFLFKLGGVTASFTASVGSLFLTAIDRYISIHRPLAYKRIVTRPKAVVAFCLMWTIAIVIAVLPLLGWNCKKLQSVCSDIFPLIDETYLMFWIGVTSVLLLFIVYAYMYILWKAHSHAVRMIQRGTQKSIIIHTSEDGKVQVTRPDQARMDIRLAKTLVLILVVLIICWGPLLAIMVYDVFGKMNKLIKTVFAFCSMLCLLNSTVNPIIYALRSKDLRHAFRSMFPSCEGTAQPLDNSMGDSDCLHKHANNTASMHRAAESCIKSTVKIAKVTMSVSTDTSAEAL

O=c1c(NCCc2ccccc2)c(Nc2ccc(Cl)cc2)c1=O [Compound 11, 3-[(4-Chlorophenyl)amino]-4-[(2-phenylethyl)amino]cyclobut-3-ene-1,2-dione]
IC50 (Human CB1 [1]): 0.776 µM
IC50 (Human CB1 [2]): 0.21 ± 0.039 µM

N#Cc1ccc(Nc2c(NCCc3cccc(Cl)c3)c(=O)c2=O)cc1 [Compound 28, 4-[(2-{[2-(3-Chlorophenyl)ethyl]amino}-3,4-dioxocyclobut-1-en-1-yl)amino]benzonitrile]
IC50 (Human CB1 [1]): 0.398 µM
IC50 (Human CB1 [2]): 0.46 ± 0.066 µM

O=c1c(Nc2ccc(Cl)cc2)c(Nc2cccc(-c3cscn3)c2)c1=O [Compound 31, 3-[(4-Chlorophenyl)amino]-4-{[3-(1,3-thiazol-4-yl)phenyl]amino}cyclobut-3-ene-1,2-dione]
IC50 (Human CB1 [2]): 0.154 ± 0.014 µM

O=c1c(Nc2ccc(Cl)cc2)c(Nc2cccc(-c3ccsc3)c2)c1=O [Compound 32, 3-[(4-Chlorophenyl)amino]-4-{[3-(thiophen-3-yl)phenyl]amino}cyclobut-3-ene-1,2-dione]
IC50 (Human CB1 [2]): 0.463 ± 0.056 µM

O=c1c(Nc2ccc(Cl)cc2)c(Nc2cccc(-c3ccc(F)cc3)c2)c1=O [Compound 33, 3-[(4-Chlorophenyl)amino]-4-[(4′-fluorobiphenyl-3-yl)amino]cyclobut-3-ene-1,2-dione]
% Plasma Protein Bound (Plasma protein binding): 99%
IC50 (Mouse CB1; read-out: Mouse CB1 [35S]GTPγS binding assay pIC50 ± SEM (converted)): 0.11 µM
IC50 (Human CB1 [1]): 0.501 µM
solubility kinetic at 2 h [3]: < 1 µM
IC50 (Human CB1 [2]): 0.575 ± 0.1 µM
microsomal CLint ([4]; read-out: Rat Liver microsome Clearance): 59.6 µL/min/mg
half-life ([4]; read-out: Rat Liver microsome T1/2): 23.7 min

O=c1c(Nc2ccc(Cl)cc2)c(Nc2ccc(-c3ccccc3)cc2)c1=O [Compound 34, 3-(Biphenyl-4-ylamino)-4-[(4-chlorophenyl)amino]cyclobut-3-ene-1,2-dione]
IC50 (Human CB1 [2]): 1.48 ± 0.297 µM

Cc1ccccc1CCNc1c(Nc2ccc(Cl)cc2)c(=O)c1=O [Compound 35, 3-[(4-Chlorophenyl)amino]-4-{[2-(2-methylphenyl)ethyl]amino}cyclobut-3-ene-1,2-dione]
IC50 (Human CB1 [2]): 0.353 ± 0.037 µM

O=c1c(NCCc2ccccn2)c(Nc2ccc(Cl)cc2)c1=O [Compound 36, 3-[(4-Chlorophenyl)amino]-4-{[2-(pyridin-2-yl)ethyl]amino}cyclobut-3-ene-1,2-dione]
IC50 (Human CB1 [2]): 0.958 ± 0.06 µM

O=c1c(NCCc2ccncc2)c(Nc2ccc(Cl)cc2)c1=O [Compound 37, 3-[(4-Chlorophenyl)amino]-4-{[2-(pyridin-4-yl)ethyl]amino}cyclobut-3-ene-1,2-dione]
IC50 (Human CB1 [2]): > 10 µM

O=c1c(NCCc2ccc(Br)cc2)c(Nc2ccc(Cl)cc2)c1=O [Compound 38, 3-[(4-Chlorophenyl)amino]-4-{[2-(4-bromophenyl)ethyl]amino}cyclobut-3-ene-1,2-dione]
IC50 (Human CB1 [2]): 0.333 ± 0.007 µM

O=c1c(NCCc2cccs2)c(Nc2ccc(Cl)cc2)c1=O [Compound 39, 3-[(4-Chlorophenyl)amino]-4-{[2-(thiophen-2-yl)ethyl]amino}cyclobut-3-ene-1,2-dione]
IC50 (Human CB1 [2]): 0.399 ± 0.022 µM

CC(=O)c1ccc(CCNc2c(Nc3ccc(Cl)cc3)c(=O)c2=O)cc1 [Compound 40, 3-{[2-(A-acetylphenyl)ethyl]amino}-4-[(4-chlorophenyl)amino]cyclobut-3-ene-1,2-dione]
Mouse CB1 [35S]GTPγS binding assay pIC50 ± SEM (Mouse CB1): 6.70 ± 0.09
Human CB1 HEK293 membrane [35S]GTPγS binding assay pIC50 ± SEM (Human CB1 [1]): 6.77 ± 0.04
IC50 (Human CB1 [2]): 0.35 ± 0.01 µM

O=c1c(NCCc2ccc(Cl)c(Cl)c2)c(Nc2ccc(Cl)cc2)c1=O [Compound 41, 3-[(4-Chlorophenyl)amino]-4-{[2-(3,4-dichlorophenyl)ethyl]amino}cyclobut-3-ene-1,2-dione]
IC50 (Human CB1 [2]): 0.877 ± 0.031 µM

Cc1ccc(CCNc2c(Nc3ccc(Cl)cc3)c(=O)c2=O)cc1C [Compound 42, 3-[(4-Chlorophenyl)amino]-4-{[2-(3,4-dimethylphenyl)ethyl]amino}cyclobut-3-ene-1,2-dione]
IC50 (Human CB1 [2]): 0.408 ± 0.066 µM

O=c1c(NCCc2cccc(O)c2)c(Nc2ccc(Cl)cc2)c1=O [Compound 43, 3-[(4-Chlorophenyl)amino]-4-{[2-(3-hydroxyphenyl)ethyl]amino}cyclobut-3-ene-1,2-dione]
IC50 (Human CB1 [2]): 2.07 ± 0.204 µM

O=c1c(NCCc2ccc(Cl)cc2Cl)c(Nc2ccc(Cl)cc2)c1=O [Compound 44, 3-[(4-Chlorophenyl)amino]-4-{[2-(2,4-dichlorophenyl)ethyl]amino}cyclobut-3-ene-1,2-dione]
IC50 (Human CB1 [2]): 1.14 ± 0.183 µM

O=c1c(NCCN2CCCCC2)c(Nc2ccc(Cl)cc2)c1=O [Compound 45, 3-[(4-Chlorophenyl)amino]-4-{[2-(piperidin-1-yl)ethyl]amino}cyclobut-3-ene-1,2-dione]
IC50 (Human CB1 [2]): > 10 µM

O=c1c(NCCc2ccc(F)cc2F)c(Nc2ccc(Cl)cc2)c1=O [Compound 47, 3-[(4-Chlorophenyl)amino]-4-{[2-(2,4-difluorophenyl)ethyl]amino}cyclobut-3-ene-1,2-dione]
Mouse CB1 [35S]GTPγS binding assay pIC50 ± SEM (Mouse CB1): 6.61 ± 0.19
Human CB1 HEK293 membrane [35S]GTPγS binding assay pIC50 ± SEM (Human CB1 [1]): 6.84 ± 0.08
IC50 (Human CB1 [2]): 0.362 ± 0.03 µM

CCN(CC)c1ccc(CCNc2c(Nc3ccc(Cl)cc3)c(=O)c2=O)cc1 [Compound 48, 3-[(4-Chlorophenyl)amino]-4-({2-[4-(diethylamino)phenyl]ethyl}amino)cyclobut-3-ene-1,2-dione]
IC50 (Human CB1 [2]): 0.639 ± 0.247 µM

O=c1c(NCCc2ccc(N3CCCCC3)cc2)c(Nc2ccc(Cl)cc2)c1=O [Compound 49, 3-[(4-Chlorophenyl)amino]-4-{[2-(4-piperidin-1-ylphenyl)ethyl]amino}cyclobut-3-ene-1,2-dione]
IC50 (Human CB1 [2]): > 10 µM

O=c1c(NCCc2ccc(N3CCCC3)cc2)c(Nc2ccc(Cl)cc2)c1=O [Compound 50, 3-[(4-Chlorophenyl)amino]-4-{[2-(4-pyrrolidin-1-ylphenyl)ethyl]amino}cyclobut-3-ene-1,2-dione]
IC50 (Human CB1 [2]): > 10 µM

O=c1c(NCCc2ccc(N3CCC3)cc2)c(Nc2ccc(Cl)cc2)c1=O [Compound 51, 3-{[2-(4-Azetidin-1-ylphenyl)ethyl]amino}-4-[(4-chlorophenyl)amino]cyclobut-3-ene-1,2-dione]
IC50 (Human CB1 [2]): > 10 µM
